Experimental data reported in US20040062782A1, “Addition of insect repellent during rinse cycle” (priority 2002, published 2004).

System: insects
Test: Insect repellence of articles treated with DEET during the rinse cycle of an automated washing machine
Assay type: in vivo
Description: The present invention centers around adding a insect repellent to articles during the rinse cycle of a washing machine. During the rinse cycle, detergent and stains are dissolved into the fluid medium, while the insect repellent is added to the fluid medium and disseminates throughout the fluid medium and articles within the washing machine and is retained by the contents of the washing machine as the fluid medium is partially removed. As the damp articles are removed from the washing machine and subsequently dried, the insect repellent is retained therein as the fluid medium is removed. While there are various application rates of DEET that produce the desired effect of repelling insects from articles under different conditions, it has been found sufficient to provide along the order of 1 fluid ounce of DEET to the articles during the rinse cycle of an automated washing machine. […] It is also within the scope and spirit of the present invention to add […] more than 1 fluid ounce to increase the concentration of DEET retained by the articles after the rinse cycle is complete. For example, if the articles may be exposed to elevated temperatures for an extended period, say 2 hours or more, the amount of DEET added during the rinse cycle may be higher to compensate for the higher amount of DEET emanating from the articles at the elevated temperatures. […] However, higher or lower ratios may be utilized depending upon the conditions of intended use of the articles or the intended duration of insect repellence. As discussed above, the ratio may be […] along the lines of 1:1 to 2:1 to impart insect repellence in accordance with increased exposure to elevated temperatures, and/or to provide insect repellence during a longer duration.

CCN(CC)C(=O)c1cccc(C)c1 [DEET, N,N-diethyl-m-toluamide]
insect repellence (duration) while the article is being used (on the order of 1 fluid ounce of DEET added to the articles during the rinse cycle, article in use): approximately 24 hours | extended insect repellence (duration) for stored articles (on the order of 1 fluid ounce of DEET added to the articles during the rinse cycle, stored articles): approximately one month | repelling insects from the articles (ratio of 4:1 to 5:1 (in fluid ounces) of fabric softener and/or other components to DEET, added to the rinse cycle): provides the desired effect of repelling insects from the articles
